This is an account of results in ChEMBL document CHEMBL5604062, “ASAP - ZIKV NS2B-NS3 protease fluorescence dose response” (2024).

Structures are written as SMILES. Values joined by “and” are separate entries in the source; they are usually repeats but may differ in a detail not shown here. Identical values can stand only once.

The target in this test is Nonstructural protein 3 (Zika virus, UniProt A0A024AXB9). As to the kind of experiment: Functional biochemical assay to identify treatments for viral infectious disease that targets Zika NS2B-NS3 protease. Utilizing a direct enzyme activity measurement method, reading the fluorescence intensity is used to characterize the relative potency of inhibitors as IC50. More on the design: species or system PRVABC59.
Nonstructural protein 3, sequence (A0A024AXB9 whole entry): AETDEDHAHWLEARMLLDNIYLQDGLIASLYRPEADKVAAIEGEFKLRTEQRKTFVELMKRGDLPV
For `O=C(Nc1cc(Cl)cc(C(=O)Nc2ccc3c(c2)CNC3)c1)OCc1ccccc1`, the IC50 is < 2.49 µM and 0.175 µM and 0.19 µM.

Compound `NCc1cccc(NC(=O)c2cc(F)cc(NC(=O)OCc3ccccc3)c2F)c1` returned a half-maximal inhibitory concentration (IC50) of 74.4 µM.

Regarding `c1cnc2c(c1)CC[C@@H]2NCc1n[nH]c2ccccc12`, the concentration for half-maximal inhibition (IC50) is > 99.5 µM.

`C[C@@H](Cc1c[nH]c2ccccc12)N1CCC(c2nc3ccccc3s2)CC1`: the half-inhibitory concentration (IC50) was > 99.5 µM.

In the case of `Cc1nocc1S(=O)(=O)N[C@H](C(=O)Nc1cccc(CN)c1)c1ccc(OCc2ccccc2)cc1`, the IC50 was > 99.5 µM.

`NC1(c2cccc(NC(=O)c3cc(Cl)cc(NC(=O)OCc4ccccc4)c3)c2)CCC1`: the IC50 was > 99.5 µM.

As to `Cc1ccc(-c2nc(NC(=O)[C@H](NC(=O)OCc3ccccc3)c3ccc(OCc4ccccc4)cc3)sc2CN(C)C)cc1`, the half-maximal inhibitory concentration (IC50) is > 99.5 µM.

`CN(C)Cc1cc(NC(=O)c2cc(Cl)cc(NC(=O)OCc3ccccc3)c2)sn1`: the IC50 is > 99.5 µM.

`NCc1cccc(NC(=O)c2cc(Cl)cc(CN)c2)c1`: the half-maximal inhibitory concentration (IC50) is < 2.49 µM.

Consider `NCc1cccc(NC(=O)[C@H](NC(=O)OCc2ccccc2)C2CCNCC2)c1`, for which the concentration for half-maximal inhibition (IC50) was > 99.5 µM.

As to `NCc1cc(S(=O)(=O)Nc2ccc(Cl)cc2C(=O)O)ccc1Oc1ccccc1`, the concentration for half-maximal inhibition (IC50) is > 99.5 µM.

As for `NCc1cccc(NC(=O)[C@H](NC(=O)OCc2ccccc2)c2cccc(OCC3CCOCC3)c2)c1`, the IC50 is > 99.5 µM.

`O=C(O)c1cc(Cl)ccc1NS(=O)(=O)c1ccc(-c2cscn2)cc1` registered an IC50 of 43.1 µM.

On to `C[C@H]1CN(C(=O)c2cccc3c(CN)cccc23)CCC12CCNCC2`, for which the IC50 is > 99.5 µM.

For `CN1CCc2nc(NC(=O)c3cc(Cl)cc(NC(=O)OCc4ccccc4)c3)sc2C1`, the IC50 is > 99.5 µM.

As for `O=C(O)c1cc(Cl)ccc1S(=O)(=O)N[C@H]1CC[C@@H](Oc2cnccn2)CC1`, the IC50 is > 99.5 µM.

As to `COc1ncccc1S(=O)(=O)N[C@H](C(=O)Nc1cccc(CN)c1)c1ccc(OCc2ccccc2)cc1`, the IC50 is > 99.5 µM.

Turning to `COC(=O)[C@H](NC(=O)OC(C)(C)C)c1ccc(-c2csc(C)c2)cc1`, the IC50 was > 99.5 µM.

As for `CC1=NN(c2ccc(NS(=O)(=O)c3ccc(Cl)cc3C(=O)O)cn2)C(=O)C1`, the IC50 is > 99.5 µM.

As to `CS(=O)(=O)c1cc(NC(=O)OCc2ccccc2)cc(C(=O)Nc2cccc(CN)c2)c1`, the half-maximal inhibitory concentration (IC50) is > 99.5 µM.

`COC(=O)C1(S(=O)(=O)N[C@H](C(=O)Nc2cccc(CN)c2)c2ccc(OCc3ccccc3)cc2)CCC1` showed an IC50 of 98.1 µM.

For `c1nc(C2CCN(Cc3n[nH]c4c3CCC4)CC2)cs1`, the IC50 was > 99.5 µM.

In the case of `CCC1([C@H](NC(=O)OCc2ccccc2)C(=O)NCc2cccc(CN)c2)CCCCC1`, the IC50 is > 99.5 µM.

As to `CC(C)(C)OC(=O)NCc1cccc(NC(=O)c2cc(N)cc(Cl)c2)c1`, the IC50 was > 99.5 µM.

For the compound `Cc1c(NC(=O)OCc2ccccc2)cc(C(=O)Nc2cccc(CN)c2)cc1C(F)(F)F`, the half-maximal inhibitory concentration (IC50) is > 99.5 µM.

For the compound `CN1CCn2nc(NC(=O)c3cc(Cl)cc(NC(=O)OCc4ccccc4)c3)cc2C1`, the IC50 was > 99.5 µM.

For `c1nc(C2CCN(Cc3n[nH]c4c3COCC4)CC2)cs1`, the half-maximal inhibitory concentration (IC50) was > 99.5 µM.

For `CC(C)c1cc(S(=O)(=O)N[C@H](C(=O)Nc2cccc(CN)c2)c2ccc(OCc3ccccc3)cc2)on1`, the IC50 is > 99.5 µM.

For the compound `Cc1nc(CCCNCc2n[nH]c3ccccc23)cs1`, the IC50 is > 99.5 µM.

`NCc1cccc(NC(=O)[C@@H](NS(=O)(=O)c2ccccn2)c2ccc(OCc3ccccc3)cc2)c1`: the IC50 is > 99.5 µM.

Take `c1ccc2sc(C3CCN(CCc4c[nH]c5ccccc45)CC3)nc2c1`: the concentration for half-maximal inhibition (IC50) is > 99.5 µM.

On to `NC[C@H]1CC[C@H](NC(=O)c2cc(Cl)cc(NC(=O)OCc3ccccc3)c2)CC1`, for which the half-inhibitory concentration (IC50) is > 99.5 µM.

Regarding `NCc1cccc(NC(=O)[C@@H]2CCC[C@H](NC(=O)OCc3ccccc3)C2)c1`, the concentration for half-maximal inhibition (IC50) is > 99.5 µM.

On to `Cn1nc2c(c1NC(=O)c1cc(Cl)cc(NC(=O)OCc3ccccc3)c1)CNC2`, for which the IC50 was > 99.5 µM.

Turning to `c1ccc2c(CN[C@H]3CCc4ncsc4C3)n[nH]c2c1`, the concentration for half-maximal inhibition (IC50) was > 99.5 µM.

With `NCc1cc(S(=O)(=O)Nc2ccc(Cl)cc2C(=O)NCC(F)(F)F)ccc1Oc1ccccc1`, the IC50 was > 99.5 µM.

For the compound `NCCNC(=O)c1cc(Cl)cc(NC(=O)OCc2ccccc2)c1`, the IC50 is > 99.5 µM.

Consider `CC1(C)CNC[C@H](C(=O)Nc2cccc(CN)c2)C1`, for which the IC50 is > 99.5 µM.

As to `O=C(O)c1cc(Cl)ccc1S(=O)(=O)Nc1ccc(S(=O)(=O)Nc2ccccc2)cc1`, the IC50 is > 99.5 µM.

Take `c1cc(CN2CCC(c3cscn3)CC2)[nH]n1`: the IC50 was > 99.5 µM.

As for `O=C(O)c1cc(Cl)ccc1S(=O)(=O)N[C@H]1CC[C@H](Oc2cnccn2)CC1`, the IC50 was > 99.5 µM.

As to `NCc1cccc(NC(=O)[C@H](NS(=O)(=O)c2cccnc2)c2ccc(OCc3ccccc3)cc2)c1`, the IC50 is > 99.5 µM.

Consider `NCc1cccc(NC(=O)[C@H](NC(=O)OCc2ccccc2)c2cccc(OCc3ncccn3)c2)c1`, for which the IC50 is > 99.5 µM.

`CCn1c(=O)c(N2CCC[C@H]2c2nncs2)nc2ccccc21`: the IC50 was > 99.5 µM.

`COc1cc(NC(=O)OCc2ccccc2)cc(C(=O)Nc2cccc(CN)c2)c1` yielded a 50% inhibitory concentration (IC50) of 78.8 µM.

`Cc1cc(CN(C)C)cc(NC(=O)[C@H](NC(=O)OCc2ccccc2)c2ccc(OCc3ccccc3)cc2)c1`: the 50% inhibitory concentration (IC50) is > 99.5 µM.

`NCc1cccc(NC(=O)c2cc(NC(=O)OCc3ccccc3)cc(Cl)c2Cl)c1` displayed an IC50 of 43.9 µM.

As to `CCn1nc(-c2ccccc2)cc1NS(=O)(=O)c1ccc(Cl)cc1C(=O)O`, the IC50 was 29.6 µM.

For the compound `C[C@H]1CNC[C@H](C(=O)Nc2cccc(CN)c2)C1`, the IC50 was > 99.5 µM.

Take `Cc1nn(C)cc1S(=O)(=O)N[C@@H](C(=O)Nc1cccc(CN)c1)c1ccc(OCc2ccccc2)cc1`: the IC50 was > 99.5 µM.

For `Cn1ccc(Nc2ccc(S(=O)(=O)Nc3ccc(Cl)cc3C(=O)O)cn2)n1`, the IC50 was > 99.5 µM.

With `Cn1ccnc1S(=O)(=O)N[C@@H](C(=O)Nc1cccc(CN)c1)c1ccc(OCc2ccccc2)cc1`, the IC50 was > 99.5 µM.

As to `NCc1ccc(Oc2ccc(S(=O)(=O)Nc3ccc(Cl)cc3C(=O)NCC(F)(F)F)cc2)cc1`, the concentration for half-maximal inhibition (IC50) is > 99.5 µM.

In the case of `CCS(=O)(=O)N[C@@H](C(=O)Nc1cccc(CN)c1)c1ccc(OCc2ccccc2)cc1`, the half-inhibitory concentration (IC50) is > 99.5 µM.

For the compound `CC(C)N1CCc2nc(NC(=O)[C@H](NC(=O)OCc3ccccc3)c3ccc(OCc4ccccc4)cc3)sc2C1`, the IC50 was > 99.5 µM.

Consider `Cn1nccc1CN1CCC(NS(=O)(=O)c2ccc(Cl)cc2C(=O)O)CC1`, for which the half-maximal inhibitory concentration (IC50) is > 99.5 µM.

Consider `NCc1cccc(NC(=O)[C@@H]2C[C@H](NC(=O)OCc3ccccc3)[C@H]3C[C@H]32)c1`, for which the 50% inhibitory concentration (IC50) was > 99.5 µM.

Turning to `NCc1cccc(NC(=O)[C@H](NS(=O)(=O)C[C@H]2COCCO2)c2ccc(OCc3ccccc3)cc2)c1`, the IC50 was > 99.5 µM.

`Cc1csc(COc2cccc([C@H](NC(=O)OCc3ccccc3)C(=O)Nc3cccc(CN)c3)c2)n1` had an IC50 of 29.8 µM.

`Cc1[nH]c2ccccc2c1CN1CCC(c2nc3ccccc3s2)CC1`: the IC50 came to 2.89 µM.

Compound `C[C@H]1CC[C@H](CS(=O)(=O)N[C@H](C(=O)Nc2cccc(CN)c2)c2ccc(OCc3ccccc3)cc2)CC1` yielded a 50% inhibitory concentration (IC50) of 15.4 µM. This IC50 is about 5.3-fold higher than that of the compound before.

On to `NCc1cccc(NC(=O)[C@H](NC(=O)OCc2ccccc2)c2cccc(OCc3ccccn3)c2)c1`, for which the IC50 was > 99.5 µM.

On to `NCc1ccc(Oc2ccc(S(=O)(=O)Nc3ccc(Cl)cc3C(=O)O)cc2)cc1`, for which the half-maximal inhibitory concentration (IC50) is > 99.5 µM.

One may read the IC50 as the concentration at which inhibition is half-maximal. Read a high IC50 as weaker potency.
